For orientation: IC50 means the point on the concentration scale where inhibition reaches its midpoint. Higher therefore signals weaker potency.

SMILES strings stand for the structures. Where only a bound is given, the exact number is not on record here.

Assay type in all cases: biochemical
The target in one assay is T1, VEGFR2 kinase (Homo sapiens, UniProt P35968).
T1 construct: purchased Invitrogen Inc PV3660
The assay is described as follows: In vitro VEGFR2 kinase assay. In outline: (§1)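 Human VEGFR2 (20 ng) or PDGFRβ (25 ng) was preincubated 10 min at about 22°C with compound, then reacted 2 h at 30°C with poly Glu:Tyr (4:1), ATP added at 60 μM. ADP formation was detected by ADP Quest coupled resorufin fluorescence (Ex 530/Em 580 nm). Efficacy is expressed as a percentage of Bay 43-9006 positive-control activity, with DMSO as negative control.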

In another assay the target is T2, PDGFRβ kinase (Homo sapiens, UniProt P09619).
T2 construct: purchased Invitrogen Inc. P3082
T2 sequence (P09619 33-1106): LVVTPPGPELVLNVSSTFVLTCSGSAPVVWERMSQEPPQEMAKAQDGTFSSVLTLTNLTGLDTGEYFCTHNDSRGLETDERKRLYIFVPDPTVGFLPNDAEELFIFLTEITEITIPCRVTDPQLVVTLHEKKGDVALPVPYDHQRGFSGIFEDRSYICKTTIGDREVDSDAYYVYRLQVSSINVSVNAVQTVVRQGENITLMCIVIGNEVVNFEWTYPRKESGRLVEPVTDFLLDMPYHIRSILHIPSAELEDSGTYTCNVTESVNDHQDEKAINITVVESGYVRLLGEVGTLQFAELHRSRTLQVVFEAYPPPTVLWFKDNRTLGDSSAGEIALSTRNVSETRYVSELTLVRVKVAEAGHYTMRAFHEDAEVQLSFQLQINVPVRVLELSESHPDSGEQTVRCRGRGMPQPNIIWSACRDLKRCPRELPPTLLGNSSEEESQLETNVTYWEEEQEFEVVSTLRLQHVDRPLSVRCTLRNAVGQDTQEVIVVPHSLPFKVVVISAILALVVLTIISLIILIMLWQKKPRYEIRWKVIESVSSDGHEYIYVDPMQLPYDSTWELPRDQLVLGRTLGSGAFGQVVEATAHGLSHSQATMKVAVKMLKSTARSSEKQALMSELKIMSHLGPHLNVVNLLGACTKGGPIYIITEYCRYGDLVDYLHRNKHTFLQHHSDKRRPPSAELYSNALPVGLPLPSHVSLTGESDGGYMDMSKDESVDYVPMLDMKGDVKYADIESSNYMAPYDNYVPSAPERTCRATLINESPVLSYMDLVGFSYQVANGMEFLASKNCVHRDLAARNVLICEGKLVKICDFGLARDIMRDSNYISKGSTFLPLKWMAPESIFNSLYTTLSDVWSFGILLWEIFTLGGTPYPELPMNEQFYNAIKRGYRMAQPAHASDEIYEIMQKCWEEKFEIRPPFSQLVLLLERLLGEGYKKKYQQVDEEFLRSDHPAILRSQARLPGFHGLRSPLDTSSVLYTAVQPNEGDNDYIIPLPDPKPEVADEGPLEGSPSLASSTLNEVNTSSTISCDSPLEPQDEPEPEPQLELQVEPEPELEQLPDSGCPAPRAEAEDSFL
The assay is described as follows: In vitro PDGFRβ kinase assay. In outline:
as §1

The target of assay [1] is T3, human B-Raf protein kinase (Homo sapiens, UniProt P15056).
T3 construct: GST (N); purchased Upstate Inc. 14-530 (B-Raf); 14-420 (Mek1)
T3 sequence (P15056 416-766): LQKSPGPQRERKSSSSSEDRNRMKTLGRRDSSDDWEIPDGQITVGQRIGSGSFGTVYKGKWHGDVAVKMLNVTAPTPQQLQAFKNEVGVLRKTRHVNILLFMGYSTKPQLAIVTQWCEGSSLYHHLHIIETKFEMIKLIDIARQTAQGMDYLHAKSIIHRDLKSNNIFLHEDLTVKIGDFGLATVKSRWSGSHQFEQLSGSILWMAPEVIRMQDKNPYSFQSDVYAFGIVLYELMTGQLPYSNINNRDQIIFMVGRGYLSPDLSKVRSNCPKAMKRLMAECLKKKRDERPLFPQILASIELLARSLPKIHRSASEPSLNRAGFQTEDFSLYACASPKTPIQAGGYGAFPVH
Briefly: In vitro B-Raf/Mek1 composite kinase assay. In outline:
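GST-tagged human B-Raf (Δ1-415), 1 ng, in MOPS pH 7.2 buffer with 10 mM MgCl2, preincubated 15 min with compound at room temperature; after 2 h, ATP depletion read by luminescence. Inhibition expressed as percentage of positive-control activity, DMSO as negative control.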

T1 sequence (P35968 20-1356): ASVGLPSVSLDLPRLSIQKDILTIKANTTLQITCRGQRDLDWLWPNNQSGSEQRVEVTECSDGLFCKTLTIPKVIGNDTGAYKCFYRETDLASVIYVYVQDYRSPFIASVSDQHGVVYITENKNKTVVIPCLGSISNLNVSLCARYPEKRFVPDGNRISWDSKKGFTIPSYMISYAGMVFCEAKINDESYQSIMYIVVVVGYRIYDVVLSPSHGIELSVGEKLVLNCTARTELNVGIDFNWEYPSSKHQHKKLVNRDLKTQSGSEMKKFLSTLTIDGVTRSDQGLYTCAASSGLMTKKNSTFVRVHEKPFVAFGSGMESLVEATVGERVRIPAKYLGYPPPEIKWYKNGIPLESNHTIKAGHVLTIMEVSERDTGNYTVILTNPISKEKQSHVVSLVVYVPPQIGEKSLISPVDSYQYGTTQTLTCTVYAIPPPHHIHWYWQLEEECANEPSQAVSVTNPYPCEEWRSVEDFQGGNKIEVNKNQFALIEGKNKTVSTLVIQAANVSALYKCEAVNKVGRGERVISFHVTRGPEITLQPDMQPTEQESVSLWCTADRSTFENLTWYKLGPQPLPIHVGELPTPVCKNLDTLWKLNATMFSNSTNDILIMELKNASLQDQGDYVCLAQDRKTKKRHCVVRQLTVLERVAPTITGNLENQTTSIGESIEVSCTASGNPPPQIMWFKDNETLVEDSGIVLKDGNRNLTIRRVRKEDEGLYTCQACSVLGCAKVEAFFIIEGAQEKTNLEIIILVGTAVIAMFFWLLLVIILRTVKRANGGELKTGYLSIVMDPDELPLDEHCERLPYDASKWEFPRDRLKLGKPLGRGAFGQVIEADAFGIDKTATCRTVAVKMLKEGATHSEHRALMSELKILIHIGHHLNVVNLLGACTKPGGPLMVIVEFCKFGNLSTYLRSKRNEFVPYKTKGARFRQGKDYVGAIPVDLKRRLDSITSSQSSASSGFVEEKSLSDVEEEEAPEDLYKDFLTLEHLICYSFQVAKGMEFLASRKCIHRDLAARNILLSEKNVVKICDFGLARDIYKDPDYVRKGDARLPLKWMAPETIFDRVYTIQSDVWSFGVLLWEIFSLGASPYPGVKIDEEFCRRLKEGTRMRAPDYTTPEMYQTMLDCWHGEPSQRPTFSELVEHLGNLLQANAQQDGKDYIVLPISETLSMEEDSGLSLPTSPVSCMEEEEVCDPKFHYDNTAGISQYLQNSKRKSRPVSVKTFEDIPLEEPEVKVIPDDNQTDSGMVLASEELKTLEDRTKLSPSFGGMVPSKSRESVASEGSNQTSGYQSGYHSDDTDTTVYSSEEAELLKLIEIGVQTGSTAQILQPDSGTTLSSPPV

For `Cn1cc(-c2cc(Oc3cccc(NC(=O)c4ccc(Oc5ccccc5)cc4)c3)ccn2)cn1` [Example 56, N-(3-(2-(1-Methyl-1H-pyrazol-4-yl)pyridin-4-yloxy)phenyl)-4-phenoxybenzamide], the values for the IC50 (against VEGFR2 kinase; against PDGFRβ kinase; in assay [1]) were at most 10 µM, over 10 µM and at most 10 µM, respectively.
Take `Cn1cc(-c2cc(Oc3cccc(NC(=O)c4ccc(-n5cccc5)cc4)c3)ccn2)cn1` [Example 59, N-(3-(2-(1-Methyl-1H-pyrazol-4-yl)pyridin-4-yloxy)phenyl)-4-(1H-pyrrol-1-yl)benzamide]: the values for the IC50 (on VEGFR2 kinase; at PDGFRβ kinase; in assay [1]) were over 10 µM, over 10 µM and at most 10 µM, respectively.
Turning to `CCOc1cc(OCC)cc(C(=O)Nc2cccc(Oc3cc(-c4nc(C(F)(F)F)c[nH]4)ncn3)c2)c1` [Example 18, 3,5-Diethoxy-N-(3-(6-(4-(trifluoromethyl)-1H-imidazol-2-yl)pyrimidin-4-yloxy)phenyl)benzamide], the IC50 at VEGFR2 kinase was at most 10 µM; against PDGFRβ kinase, at most 10 µM; in assay [1], over 10 µM.
Consider `Cn1cc(-c2cc(Oc3cccc(NC(=O)c4ccc(Cl)c(C(F)(F)F)c4)c3)ccn2)cn1` [Example 21, 4-Chloro-N-(3-(2-(1-methyl-1H-pyrazol-4-yl)pyridin-4-yloxy)phenyl)-3-(trifluoromethyl)benzamide], for which the IC50 (at VEGFR2 kinase; against PDGFRβ kinase; in assay [1]) was over 10 µM throughout.
With `Cn1cc(-c2cc(Oc3cccc(NC(=O)c4cccc(C(F)(F)F)c4)c3)ccn2)cn1` [Example 44, N-(3-(2-(1-Methyl-1H-pyrazol-4-yl)pyridin-4-yloxy)phenyl)-3-(trifluoromethyl)benzamide], the IC50 (on VEGFR2 kinase; at PDGFRβ kinase; in assay [1]) was over 10 µM each time.
As to `CCCCOc1ccc(C(=O)Nc2cccc(Oc3ccnc(-c4cnn(C)c4)c3)c2)cc1` [Example 76, 4-Butoxy-N-(3-(2-(1-methyl-1H-pyrazol-4-yl)pyridin-4-yloxy)phenyl)benzamide], the results for the IC50 (against VEGFR2 kinase; against PDGFRβ kinase; in assay [1]) were at most 10 µM, over 10 µM and at most 10 µM, respectively.
For the compound `Cn1cc(-c2cc(Oc3cccc(NC(=O)c4ccc(Cl)c(C(F)(F)F)c4)c3)ncn2)cn1` [Example 25, 4-Chloro-N-(3-(6-(1-methyl-1H-pyrazol-4-yl)pyrimidin-4-yloxy)phenyl)-3-(trifluoromethyl)benzamide], the IC50 (on VEGFR2 kinase; against PDGFRβ kinase; in assay [1]) was over 10 µM throughout.
On to `Cn1cc(-c2cc(Oc3cccc(NC(=O)c4ccc(OC(F)(F)F)cc4)c3)ncn2)cn1` [Example 23, N-(3-(6-(1-Methyl-1H-pyrazol-4-yl)pyrimidin-4-yloxy)phenyl)-4-(trifluoromethoxy)benzamide], for which the IC50 (on VEGFR2 kinase; against PDGFRβ kinase; in assay [1]) was over 10 µM in each case.

The values are drawn from patent US20070155746A1, “NOVEL SUBSTITUTED PYRIDINYLOXY AND PYRIMIDINYLOXY AMIDES USEFUL AS INHIBITORS OF PROTEIN KINASES” (KALYPSYS, INC., priority 2005, published 2007).
